# Patent US8541460B2, “PDK-1/Akt signaling inhibitors” (The Ohio State University, priority 2003, dated 2013)
# Assays:
# [1] = system: immunoprecipitated Akt; test: Direct inhibition of immunoprecipitated Akt kinase activity; assay type: biochemical, human
# [2] = system: RPMI-8226; test: NCI DTP cell line screen (SRB), Leukemia; assay type: cell-based, human
# Experimental: (§1) Screening of compounds 70 and 71 against several cancer cell lines The human tumor cell lines of the cancer screening panel are grown in RPMI 1640 medium containing 5% fetal bovine serum and 2 mM L-glutamine. For a typical screening experiment, cells are inoculated into 96 well microtiter plates in 100 μL at plating densities ranging from 5,000 to 40,000 cells/well depending on the doubling time of individual cell lines. After cell inoculation, the microtiter plates are incubated at 37° C., 5% CO2, 95% air and 100% relative humidity for 24 h prior to addition of experimental drugs.
# (§2) After 24 h, two plates of each cell line are fixed in situ with TCA, to represent a measurement of the cell population for each cell line at the time of drug addition (Tz). Experimental drugs are solubilized in dimethyl sulfoxide at 400-fold the desired final maximum test concentration and stored frozen prior to use. At the time of drug addition, an aliquot of frozen concentrate is thawed and diluted to twice the desired final maximum test concentration with complete medium containing 50 μg/ml gentamicin. Additional four, 10-fold or ½ log serial dilutions are made to provide a total of five drug concentrations plus control. Aliquots of 100 μl of these different drug dilutions are added to the appropriate microtiter wells already containing 100 μl of medium, resulting in the required final drug concentrations.
# (§3) Following drug addition, the plates are incubated for an additional 48 h at 37° C., 5% CO2, 95% air, and 100% relative humidity. For adherent cells, the assay is terminated by the addition of cold TCA. Cells are fixed in situ by the gentle addition of 50 μl of cold 50% (w/v) TCA (final concentration, 10% TCA) and incubated for 60 minutes at 4° C. The supernatant is discarded, and the plates are washed five times with tap water and air dried. Sulforhodamine B (SRB) solution (100 μl) at 0.4% (w/v) in 1% acetic acid is added to each well, and plates are incubated for 10 minutes at room temperature. After staining, unbound dye is removed by washing five times with 1% acetic acid and the plates are air dried. Bound stain is subsequently solubilized with 10 mM trizma base, and the absorbance is read on an automated plate reader at a wavelength of 515 nm. For suspension cells, the methodology is the same except that the assay is terminated by fixing settled cells at the bottom of the wells by gently adding 50 μl of 80% TCA (final concentration, 16% TCA). Using the seven absorbance measurements [time zero, (Tz), control growth, (C), and test growth in the presence of drug at the five concentration levels (Ti)], the percentage growth is calculated at each of the drug concentrations levels. Percentage growth inhibition is calculated as: [(Ti−Tz)/(C−Tz)]×100 for concentrations for which Ti>/=Tz [(Ti−Tz)/Tz]×100 for concentrations for which Ti<Tz
# (§4) Three dose response parameters are calculated for each experimental agent. […] The drug concentration resulting in total growth inhibition (TGI) is calculated from Ti=Tz. […] Values are calculated for each of these three parameters if the level of activity is reached; however, if the effect is not reached or is exceeded, the value for that parameter is expressed as greater or less than the maximum or minimum concentration tested.
# (§5) The methods described were used to test compounds 70 and 71 on a panel of sixty cell lines under a screening service provided by the Developmental Therapeutics Program at the National Institutes of Health. Shown in FIG. 1C are 1, RPMI-8226 leukemia cells; 2; NCI-H322M non-small cell lung cancer cells; 3, HT29 colon cancer cells; 4, U251 CNS cancer cells; 5, SK-MEL-28 melanoma cancer cells; 6, SK-OV-3 ovarian cancer cells; 7, RXF 393 renal cancer cells; 8, PC-3 prostate cancer cells; 9, MDA-MB-231 breast cancer cells.
# [3] = system: HOP-92; test: NCI DTP cell line screen (SRB), Non-Small Cell Lung Cancer; assay type: cell-based
# [4] = system: HCT-15; test: NCI DTP cell line screen (SRB), Colon Cancer; assay type: cell-based
# [5] = system: MALME-3M; test: NCI DTP cell line screen (SRB), Melanoma; assay type: cell-based
# [6] = system: HS 578T; test: NCI DTP cell line screen (SRB), Breast Cancer; assay type: cell-based; details: HS 578T
# Experimental: as §1, §2, §3, §4, §5
# [7] = system: MDA-MB-231/ATCC; test: NCI DTP cell line screen (SRB), Breast Cancer; assay type: cell-based
# Experimental: as §1, §2, §3, §4, §5
# [8] = system: NCI/ADR-RES; test: NCI DTP cell line screen (SRB), Breast Cancer; assay type: cell-based
# Experimental: as §1, §2, §3, §4, §5
# [9] = system: T-47D; test: NCI DTP cell line screen (SRB), Breast Cancer; assay type: cell-based
# Experimental: as §1, §2, §3, §4, §5
# [10] = read-out: LC50 (the source's name)
structure (smiles),measurement,setting,value
"N=C(N)Nc1ccc(-n2nc(C(F)(F)F)cc2-c2ccc3c(ccc4ccccc43)c2)cc1 [Compound 71, 4-[5-(2-Phenanthrenyl)-3-(trifluoromethyl)-1H-pyrazol-1-yl]-phenyl-guanidine]",direct inhibitory effect on immunoprecipitated Akt activity,[1],no appreciable direct inhibition
same,GI50,[2],1030 nM
same,Mean Optical Densities,[2]; Log10 Concentration −4.0,0.176
same,Percent Growth,[2]; Log10 Concentration −4.0,−47%
same,Mean Optical Densities,[2]; Log10 Concentration −5.0,0.016
same,Percent Growth,[2]; Log10 Concentration −5.0,−95%
same,Mean Optical Densities,[2]; Log10 Concentration −6.0,0.513
same,Percent Growth,[2]; Log10 Concentration −6.0,52%
same,Mean Optical Densities,[2]; Log10 Concentration −7.0,0.559
same,Percent Growth,[2]; Log10 Concentration −7.0,65%
same,Mean Optical Densities,[2]; Log10 Concentration −8.0,0.536
same,Percent Growth,[2]; Log10 Concentration −8.0,58%
same,TGI,[2]; in M (unit assumed),2.25E−06
same,GI50,[3],1010 nM
same,TGI,[3],2.26E−06
same,Mean Optical Densities,[3]; Log10 Concentration −4.0,0.767
same,Percent Growth,[3]; Log10 Concentration −4.0,−28%
same,Mean Optical Densities,[3]; Log10 Concentration −5.0,0.089
same,Percent Growth,[3]; Log10 Concentration −5.0,−92%
same,Mean Optical Densities,[3]; Log10 Concentration −6.0,1.361
same,Percent Growth,[3]; Log10 Concentration −6.0,50%
same,Mean Optical Densities,[3]; Log10 Concentration −7.0,1.541
same,Percent Growth,[3]; Log10 Concentration −7.0,82%
same,Mean Optical Densities,[3]; Log10 Concentration −8.0,1.567
same,Percent Growth,[3]; Log10 Concentration −8.0,86%
same,GI50,[4],1540 nM
same,TGI,[4],2.87E−06
same,Mean Optical Densities,[4]; Log10 Concentration −4.0,0.082
same,Percent Growth,[4]; Log10 Concentration −4.0,−71%
same,Mean Optical Densities,[4]; Log10 Concentration −5.0,−0.003
same,Percent Growth,[4]; Log10 Concentration −5.0,−100%
same,Mean Optical Densities,[4]; Log10 Concentration −6.0,0.797
same,Percent Growth,[4]; Log10 Concentration −6.0,84%
same,Mean Optical Densities,[4]; Log10 Concentration −7.0,0.779
same,Percent Growth,[4]; Log10 Concentration −7.0,81%
same,Mean Optical Densities,[4]; Log10 Concentration −8.0,0.669
same,Percent Growth,[4]; Log10 Concentration −8.0,64%
same,CC50,[4]; [10],5360 nM
same,GI50,[5],1010 nM
same,TGI,[5],2.33E−06
same,Mean Optical Densities,[5]; Log10 Concentration −4.0,0.333
same,Percent Growth,[5]; Log10 Concentration −4.0,−50%
same,Mean Optical Densities,[5]; Log10 Concentration −5.0,0.089
same,Percent Growth,[5]; Log10 Concentration −5.0,−87%
same,Mean Optical Densities,[5]; Log10 Concentration −6.0,0.826
same,Percent Growth,[5]; Log10 Concentration −6.0,50%
same,Mean Optical Densities,[5]; Log10 Concentration −7.0,0.838
same,Percent Growth,[5]; Log10 Concentration −7.0,54%
same,Mean Optical Densities,[5]; Log10 Concentration −8.0,0.832
same,Percent Growth,[5]; Log10 Concentration −8.0,52%
same,CC50,[5]; [10],100000 nM
same,GI50,[6],1860 nM
same,TGI,[6],3.78E−06
same,Mean Optical Densities,[6]; Log10 Concentration −4.0,0.333
same,Percent Growth,[6]; Log10 Concentration −4.0,−38%
same,Mean Optical Densities,[6]; Log10 Concentration −5.0,0.168
same,Percent Growth,[6]; Log10 Concentration −5.0,−69%
same,Mean Optical Densities,[6]; Log10 Concentration −6.0,1.127
same,Percent Growth,[6]; Log10 Concentration −6.0,94%
same,Mean Optical Densities,[6]; Log10 Concentration −7.0,1.165
same,Percent Growth,[6]; Log10 Concentration −7.0,100%
same,Mean Optical Densities,[6]; Log10 Concentration −8.0,1.099
same,Percent Growth,[6]; Log10 Concentration −8.0,89%
same,TGI,[7],1.66E−06
same,Mean Optical Densities,[7]; Log10 Concentration −4.0,0.389
same,Percent Growth,[7]; Log10 Concentration −4.0,−39%
same,Mean Optical Densities,[7]; Log10 Concentration −5.0,0.015
same,Percent Growth,[7]; Log10 Concentration −5.0,−98%
same,Mean Optical Densities,[7]; Log10 Concentration −6.0,0.709
same,Percent Growth,[7]; Log10 Concentration −6.0,27%
same,Mean Optical Densities,[7]; Log10 Concentration −7.0,0.830
same,Percent Growth,[7]; Log10 Concentration −7.0,78%
same,Mean Optical Densities,[7]; Log10 Concentration −8.0,0.756
same,Percent Growth,[7]; Log10 Concentration −8.0,47%
same,GI50,[8],2640 nM
same,TGI,[8],7.73E−06
same,Mean Optical Densities,[8]; Log10 Concentration −4.0,0.294
same,Percent Growth,[8]; Log10 Concentration −4.0,−47%
same,Mean Optical Densities,[8]; Log10 Concentration −5.0,0.490
same,Percent Growth,[8]; Log10 Concentration −5.0,−12%
same,Mean Optical Densities,[8]; Log10 Concentration −6.0,1.874
same,Percent Growth,[8]; Log10 Concentration −6.0,95%
same,Mean Optical Densities,[8]; Log10 Concentration −7.0,1.882
same,Percent Growth,[8]; Log10 Concentration −7.0,96%
same,Mean Optical Densities,[8]; Log10 Concentration −8.0,1.920
same,Percent Growth,[8]; Log10 Concentration −8.0,98%
same,CC50,[8]; [10],> 100000 nM
same,GI50,[9],< 10 nM
same,TGI,[9],1.98E−06
same,Mean Optical Densities,[9]; Log10 Concentration −4.0,0.198
same,Percent Growth,[9]; Log10 Concentration −4.0,−53%
same,Mean Optical Densities,[9]; Log10 Concentration −5.0,0.100
same,Percent Growth,[9]; Log10 Concentration −5.0,−76%
same,Mean Optical Densities,[9]; Log10 Concentration −6.0,0.529
same,Percent Growth,[9]; Log10 Concentration −6.0,32%
same,Mean Optical Densities,[9]; Log10 Concentration −7.0,0.578
same,Percent Growth,[9]; Log10 Concentration −7.0,47%
same,Mean Optical Densities,[9]; Log10 Concentration −8.0,0.541
same,Percent Growth,[9]; Log10 Concentration −8.0,36%
same,CC50,[9]; [10],5720 nM
